Positions count from the first letter of the chain named. Read-outs that look alike come from different tables or passages of the source.
Tests used:
human BLVRB [1] = molecular target: T1, human BLVRB (Homo sapiens, UniProt P30043); experiment: NMR titration ([…]-HSQC); assay type: binding
T1 construct: pET21
T1 sequence (P30043 2-206): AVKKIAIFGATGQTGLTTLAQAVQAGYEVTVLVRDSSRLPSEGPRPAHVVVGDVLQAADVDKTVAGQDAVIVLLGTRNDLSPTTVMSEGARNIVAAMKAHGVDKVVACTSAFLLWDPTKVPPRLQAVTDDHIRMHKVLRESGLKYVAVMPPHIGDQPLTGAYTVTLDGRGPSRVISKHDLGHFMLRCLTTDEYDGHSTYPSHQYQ

hyrax BLVRB = molecular target: T2, hyrax BLVRB; experiment: NMR titration ([…]-HSQC); set-up: species or system Procavia capensis; details: holo form, bis-tris pH 6.5, 20 °C, 900 MHz
T2 construct: pET21

human BLVRB [2] = molecular target: T1, human BLVRB; experiment: NMR titration ([…]-HSQC); details: bis-tris pH 6.5; weak binding
Aedes aegypti BLVRB = molecular target: T3, Aedes aegypti BLVRB (Aedes aegypti, UniProt Q16FC8); experiment: NMR spectra ([…]-HSQC) apo versus NADP+; assay type: binding; details: complex unstable over hours at room temperature
T3 construct: gene 5565330
T3 sequence (Q16FC8 1-205): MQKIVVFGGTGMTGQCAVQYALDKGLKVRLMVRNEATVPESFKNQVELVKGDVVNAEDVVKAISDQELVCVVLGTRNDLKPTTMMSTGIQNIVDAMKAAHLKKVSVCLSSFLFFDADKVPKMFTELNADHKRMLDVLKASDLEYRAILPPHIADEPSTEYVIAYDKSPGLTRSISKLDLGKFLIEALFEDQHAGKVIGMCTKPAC

human BLVRB [3] = molecular target: T4, human BLVRB (Homo sapiens, UniProt P30043, T164S); experiment: isothermal titration calorimetry; assay type: binding
T4 construct: pET21
T4 sequence (P30043 2-206 T164S): T1 sequence (P30043 2-206) with T163S
Excerpt: (§1) isothermal titration calorimetry on human BLVRB

human BLVRB [4] = molecular target: T1, human BLVRB; experiment: isothermal titration calorimetry; assay type: binding
Excerpt: as §1

Q: Which results are given for Cc1cc2nc3c(=O)[nH]c(=O)nc-3n(C[C@H](O)[C@H](O)[C@H](O)COP(=O)(O)OP(=O)(O)OC[C@H]3O[C@@H](n4cnc5c(N)ncnc54)[C@H](O)[C@@H]3O)c2cc1C [FAD]?
A: Kd (human BLVRB [1]; read-out: Kd): 283 ± 13.5 µM; Kd (hyrax BLVRB; read-out: Kd): 496 ± 22.6 µM

Q: C=CC1=C(C)/C(=C/c2[nH]c(Cc3[nH]c(/C=C4\NC(=O)C(C)=C4C=C)c(C)c3CCC(=O)O)c(CCC(=O)O)c2C)NC1=O [BR-α] was tested. Which binding affinity (human BLVRB [2]) did it give?
A: a titration of human BLVRB with BR-α revealed an expected weak binding affinity

Q: With C=CC1=C(C)/C(=C/c2[nH]c(Cc3[nH]c(/C=C4\NC(=O)C(C)=C4CCC(=O)O)c(CCC(=O)O)c3C)c(C)c2C=C)NC1=O (mixture of isomers) [bilirubin-β] as the compound, how does the Kd (human BLVRB [1]; read-out: binding affinity) read?
A: 26.8 ± 9.1 µM

Q: What about the Kd (hyrax BLVRB; NADP+ 1 mM, read-out: binding affinity) of the same compound?
A: 19.5 ± 7.4 µM

Q: Which “NMR spectra (15N-HSQC) apo versus NADP+” value (Aedes aegypti BLVRB) does the source give for NC(=O)c1ccc[n+]([C@@H]2O[C@H](COP(=O)(O)OP(=O)(O)OC[C@H]3O[C@@H](n4cnc5c(N)ncnc54)[C@H](OP(=O)(O)O)[C@@H]3O)[C@@H](O)[C@H]2O)c1 [NADP^+] here?
A: gave rise to good dispersion upon NADP^+ binding

Q: What about the Kd (human BLVRB [3]; read-out: Kd (nM) with NADP^+) of the same compound?
A: 130 ± 10 nM

Q: And the Kd (human BLVRB [4]; read-out: Kd (nM) with NADP^+)?
A: 190 ± 5 nM

Q: What does the source list for NC(=O)C1=CN([C@@H]2O[C@H](COP(=O)(O)OP(=O)(O)OC[C@H]3O[C@@H](n4cnc5c(N)ncnc54)[C@H](OP(=O)(O)O)[C@@H]3O)[C@@H](O)[C@H]2O)C=CC1 [NADPH]?
A: Kd (human BLVRB [3]; read-out: Kd (nM) with NADPH): 110 ± 10 nM; Kd (human BLVRB [4]; read-out: Kd (nM) with NADPH): 130 ± 10 nM

Source: publication PMC11675717, “Evolutionary Adaptations in Biliverdin Reductase B: Insights into Coenzyme Dynamics and Catalytic Efficiency” (International Journal of Molecular Sciences, 2024)
